US12240920B2, “Cyclic peptidomimetic for the treatment of neurological disorders” (Brown University, priority 2019, dated 2025)

Columns and labels:
[1] = in vivo; settings: plasma
[2] = tested on: repeated corticosterone-injected rats; settings: CORT administration model; cited from earlier work

Compound | half-life [1] | depressive-like behavior [2]
CC(C)[C@H](NC(=O)[C@@H]1CCC(=O)NCCC(=O)NCCCC[C@H](NC(=O)[C@H](CCCCN)NC(=O)[C@H](Cc2ccc(O)cc2)NC(=O)[C@H](CC(N)=O)NC(=O)[C@H](CCCCN)NC(=O)[C@@H](N)CSSC[C@@H](N)C(=O)N[C@@H](CCCNC(=N)N)C(=O)N[C@@H](CCCNC(=N)N)C(=O)N[C@@H](CCCNC(=N)N)C(=O)N[C@@H](CCCNC(=N)N)C(=O)N[C@@H](CCCNC(=N)N)C(=O)N[C@@H](CCCNC(=N)N)C(=O)N[C@@H](CCCNC(=N)N)C(N)=O)C(=O)N[C@@H]([C@@H](C)O)C(=O)N1)C(=O)O [CN2097, R7Cs-sCYK[KTE(β-Ala)]V] | ~1 h | 
CNC1(c2ccccc2Cl)CCCCC1=O (centres unmarked) [ketamine] |  | significantly reduced depressive-like behavior
